Assay results: patent US20040268437A1, “Method for biosynthesizing the serotonin derivatives in plants” (CHONNAM NATIONAL UNIVERSITY, priority 2003, published 2004)

Tests used:
[1] = tested on: Hot pepper (Variety: Pungcheon); test: Soil treatment of hot pepper with inducers; serotonin derivative content in sarcocarps by HPLC; assay type: in vivo; conditions: for Content of serotonin derivatives: Coumaroyl Serotonin / Content of serotonin derivatives: Feruloyl serotonin / Content of serotonin derivatives: Total content: inducer 100 μM to soil, 300,000 L/ha, 20 days; for Rank of inducers by serotonin derivatives produced: in words
Experimental: Hot pepper (Variety: Pungcheon) was treated with inducers for serotonin derivative biosynthesis, followed by an examination of biosynthesis of serotonin derivatives.
Particularly, inducers for serotonin derivative biosynthesis were prepared by dissolving tyramine, tryptamine, cinnamic acid, coumaric acid, caffeic acid and ferulic acid in water respectively to make each concentration 100 μM. And then the soil where rice plants (about 40 days after heading) had been growing was treated once with each inducer for serotonin derivative biosynthesis at the rate of 300,000 L/ha, followed by further cultivation for 20 days.
The ripe sarcocarps of hot peppers were obtained to investigate the content of serotonin derivatives by the same method as used in the above Example <1-1>. Control group hot pepper was cultivated under the same condition as the experimental group hot pepper except the treatment with inducers for serotonin derivative biosynthesis.

[2] = tested on: Rice plants (Variety: Nakdong); test: Soil treatment of rice with inducers; serotonin derivative content in seeds by HPLC; assay type: in vivo; conditions: for Content of serotonin derivatives: Coumaroyl Serotonin / Content of serotonin derivatives: Feruloyl serotonin / Content of serotonin derivatives: Total content: inducer 100 μM to soil, 300,000 L/ha, 20 days; for Rank of inducers by serotonin derivatives produced: in words
Experimental: Rice plants (Variety: Nakdong) having been cultivated in the rice field were treated with inducers for serotonin derivative biosynthesis and then biosynthesis of the serotonin derivatives was investigated.
Inducers for serotonin derivative biosynthesis were prepared by dissolving tyramine, tryptamine, cinnamic acid, coumaric acid, caffeic acid and ferulic acid (Sigma-Aldrich, Korea) in water respectively to make each concentration 100 μM. And then the soil where rice plants (about 40 days after heading) had been growing was treated once with each inducer for serotonin derivative biosynthesis at the rate of 300,000 L/ha, followed by further cultivation for 20 days.
As a control group, rice plant which had been cultivated under the same conditions except the treatment with inducers for serotonin derivative biosynthesis was used.
After harvesting rice, seeds of the rice were peeled to obtain brown rice. N-(hydroxycinnamoyl)-amines were extracted from 1 g of the brown rice by known method (Ishihara et al., Biosci. Biotechnol. Biochem. 64, 1025-1031, 2000), and then, HPLC was performed.
Coumaroylserotonin and feruloylserotonin included in the extract of seeds of rice, treated with inducers for serotonin derivative biosynthesis, were quantified by HPLC using a standard substance synthesized by a well-known method (Villegas & Brodelius, Physiol. Plant. 78, 414-420, 1990).

[3] = tested on: transgenic rice plants (T14) over-expressing THT; test: Soil treatment of transgenic rice T14 with inducers; serotonin derivative content in seeds; assay type: in vivo; conditions: seeds of transgenic rice T14; inducer 100 μM to soil, 300,000 L/ha, 20 days
Experimental: Among T2 generations of transgenic rice plants, T14 was transplanted in the soil, to which inducers for serotonin derivative biosynthesis were treated. After cultivation, the contents of serotonin derivatives in seeds of the transgenic rice plants were investigated.
As inducers for serotonin derivative biosynthesis, tyramine, tryptamine, cinnamic acid, coumaric acid, caffeic acid and ferulic acid were used. Precisely, the inducers for serotonin derivative biosynthesis were dissolved in water, making each concentration 100 μM. Then, the solutions were added at the rate of 300,000 L/ha, to the soil where rice plants (about 40 days after heading) were growing. The plants were cultivated for 20 more days.
The seeds of the plants cultivated above were collected, and the content of serotonin derivatives in them was investigated with the same method as used in the Example <1-1>, which was compared with that in seeds of wild type control rice plants.

[4] = tested on: potato THT; conditions: potato THT; cited from earlier work
[5] = tested on: recombinant hot pepper THT; conditions: hydroxycinnamic acid derivative substrates; cited from earlier work

Compound | Content of serotonin derivatives: Coumaroyl Serotonin [1] | Content of serotonin derivatives: Feruloyl serotonin [1] | Content of serotonin derivatives: Total content [1] | Content of serotonin derivatives: Coumaroyl Serotonin [2] | Content of serotonin derivatives: Feruloyl serotonin [2] | Content of serotonin derivatives: Total content [2] | Content of serotonin derivative: Coumaroyl serotonin [3] | Content of serotonin derivative: Feruloyl serotonin [3] | Content of serotonin derivative: Total content [3] | Rank of inducers by serotonin derivatives produced [1] | Rank of inducers by serotonin derivatives produced [2] | Use as amine substrate [4] | Maximum reaction velocity (Vmax) relative to coumaroyl-CoA [5]
O=C(O)/C=C/c1ccc(O)c(O)c1 [Caffeic acid, caffeic acid] | 138 ng/1 g sarcocarps | 162 ng/1 g sarcocarps | 300 ng/1 g sarcocarps | 20 ng/1 g seed | 23 ng/1 g seed | 43 ng/1 g seed | 368 ng/g seeds | 430 ng/g seeds | 798 ng/g seeds |  |  |  | 
O=C(O)C=Cc1ccccc1 [Cinnamic acid, cinnamic acid] | 214 ng/1 g sarcocarps | 276 ng/1 g sarcocarps | 490 ng/1 g sarcocarps | 48 ng/1 g seed | 76 ng/1 g seed | 124 ng/1 g seed | 403 ng/g seeds | 406 ng/g seeds | 809 ng/g seeds | produced most | produced most |  | 
O=C(O)/C=C/c1ccc(O)cc1 [Coumaric acid, coumaric acid] | 120 ng/1 g sarcocarps | 170 ng/1 g sarcocarps | 290 ng/1 g sarcocarps | 15 ng/1 g seed | 21 ng/1 g seed | 36 ng/1 g seed | 325 ng/g seeds | 599 ng/g seeds | 924 ng/g seeds |  |  |  | 
COc1cc(/C=C/C(=O)O)ccc1O [Ferulic acid, ferulic acid] | 145 ng/1 g sarcocarps | 230 ng/1 g sarcocarps | 375 ng/1 g sarcocarps | 33 ng/1 g seed | 37 ng/1 g seed | 70 ng/1 g seed | 313 ng/g seeds | 537 ng/g seeds | 850 ng/g seeds | second most | third most |  | 
NCCc1c[nH]c2ccccc12 [Tryptamine, tryptamine] | 61 ng/1 g sarcocarps | 79 ng/1 g sarcocarps | 140 ng/1 g sarcocarps | 20 ng/1 g seed | 28 ng/1 g seed | 48 ng/1 g seed | 376 ng/g seeds | 382 ng/g seeds | 758 ng/g seeds |  |  | not used as a substrate | 
N=C(N)NCCCCN [agmatine] |  |  |  |  |  |  |  |  |  |  |  | not used as a substrate | 
NCCCCCN [cadaverin] |  |  |  |  |  |  |  |  |  |  |  | not used as a substrate | 
CC(C)(COP(=O)(O)OP(=O)(O)OC[C@H]1O[C@@H](n2cnc3c(N)ncnc32)[C@H](O)[C@@H]1OP(=O)(O)O)[C@@H](O)C(=O)NCCC(=O)NCCSC(=O)C=Cc1ccccc1 [cinnamoyl-CoA] |  |  |  |  |  |  |  |  |  |  |  |  | 15 times
NCCCCN [putricine] |  |  |  |  |  |  |  |  |  |  |  | not used as a substrate | 
NCCCCNCCCN [spermidine] |  |  |  |  |  |  |  |  |  |  |  | not used as a substrate | 
NCCCNCCCCNCCCN [spermine] |  |  |  |  |  |  |  |  |  |  |  | not used as a substrate | 
